Reference: patent US20230137816A1, “ADMINISTRATION OF CALCIUM CHANNEL TRPC6 INHIBITORS USING BALLOONS, STENTS OR OTHER MEDICAL DEVICES” (DEUTSCHES HERZZENTRUM MUENCHEN DES FREISTAATES BAYERN, priority 2020, published 2023)

Tests used:
Type in all cases: cell-based
[1] = tested on: human aortic smooth muscle cells (hAoSMC); test: Scratch wound assay of human aortic SMCs (cell migration); parameters: VSMC migration (wound reclosure) / VSMC migration versus control: dose or concentration left out as unconfirmed; details: for wound reclosure: 100 μM OAG
Description: (§1) Human aortic smooth muscle cells (hAoSMC) were purchased from PromoCell (Heidelberg, Germany) and cultured at 37° C. in a humidified 5% CO2 atmosphere in the recommended cell culture medium (PromoCell, Heidelberg, Germany).
For scratch wound assays, cells were seeded in 24 well plates at a density of 100,000 cells per well. After they had grown to confluence for 24 h the cell monolayer was scratched in the middle with a 200 μl pipette tip. Cells were washed with PBS and incubated in growth medium supplemented with OAG (Sigma-Aldrich, St. […] Wound area was measured directly after the scratch (t0) and after 6 h (t1), 8 h (t2) and 12 h (t3) with a phase-contrast microscope (Axiovert 100, Zeiss, Oberkochen, Germany) and assessed with ImageJ version 1.47v. Wound reclosure was measured as Δt0-t1 (6 h), Δt0-t2 (8 h), and Δt0-t3 (12 h) in pixels. Scratch assays were performed in triplicates. For radius assays, 24-well plates were coated with gelatin solution (Pelobiotech, Planegg, Germany). Culture cylinders (total diameter 4 mm, inner diameter 2 mm; Bioptechs, Butler, Pa., USA) were then placed in the middle of the well and cells were seeded at a density of 100,000 cells per well around the cylinders. 20 μL of SAR 7334 with a final concentration of 100 nM in gelatin were added to the inner of the cylinders. 1% DMSO was used as control. After 24 h of incubation cylinders were removed and pictures were acquired immediately (t0) and after 48 h (t1) using a phase-contrast microscopy system (Axiovert 100, Zeiss, Oberkochen, Germany). Wound reclosure was measured as Δt0-t1 (48 h) in pixels. Measurements were performed in duplicates.
For scratch wound assays, cells were seeded in 24 well plates at a density of 100,000 cells per well. After they had grown to confluence for 24 h the cell monolayer was scratched in the middle with a 200 μl pipette tip. Cells were washed with PBS and incubated in growth medium supplemented with OAG (Sigma-Aldrich, St. Louis, Mo., USA) at final concentration of 100 μM or SAR 7334 (Bio-Techne, Wiesbaden, Germany) at a final concentration of 100 nM. 1% DMSO was used as control. Wound area was measured directly after the scratch (t0) and after 6 h (t1), 8 h (t2) and 12 h (t3) with a phase-contrast microscope (Axiovert 100, Zeiss, Oberkochen, Germany) and assessed with ImageJ version 1.47v. Wound reclosure was measured as Δt0-t1 (6 h), Δt0-t2 (8 h), and Δt0-t3 (12 h) in pixels. Scratch assays were performed in triplicates. For radius assays, 24-well plates were coated with gelatin solution (Pelobiotech, Planegg, Germany). Culture cylinders (total diameter 4 mm, inner diameter 2 mm; Bioptechs, Butler, Pa., USA) were then placed in the middle of the well and cells were seeded at a density of 100,000 cells per well around the cylinders. 20 μL of SAR 7334 with a final concentration of 100 nM in gelatin were added to the inner of the cylinders. 1% DMSO was used as control. After 24 h of incubation cylinders were removed and pictures were acquired immediately (t0) and after 48 h (t1) using a phase-contrast microscopy system (Axiovert 100, Zeiss, Oberkochen, Germany). Wound reclosure was measured as Δt0-t1 (48 h) in pixels. Measurements were performed in duplicates.

[2] = tested on: human aortic smooth muscle cells (hAoSMC); test: Cell proliferation assay, BrdU ELISA; details: 100 μM OAG; vehicle 0.08±0.03, p<0.01
Description: as §1
Cell proliferation was assessed using of a colorimetric bromodeoxyuridine (BrdU) enzyme-linked immunosorbent assay (ELISA) according to manufacturer's protocol (Roche Applied Science, Penzberg, Germany). Briefly, cells were seeded in 96 well plates at a density of 10,000 cells per well in starving medium, i.e., lacking FBS and growth factors. After 24 h, the starving medium was replaced by growth medium which was either supplemented with 1-Oleoyl-2-acetyl-sn-glycerol (OAG; Sigma-Aldrich, St. Louis, Mo., USA) at a final concentration of 100 μM, SAR 7334 (Tocris Bioscience, Bristol, UK) at a final concentration of 100 nM or with 1% of DMSO which was used as vehicle. After incubation for another 24 h, 10 μl of BrdU solution were added. Absorbance was measured at 370 nm with a reference wavelength of 492 nm in the Infinite M200 PRO microplate reader using the iControl v1.10 software (both Tecan Group, Männedorf, Switzerland) after further 24 h. Measurements were performed in triplicates.

[3] = tested on: human aortic smooth muscle cells (hAoSMC); test: Radius migration assay of human aortic SMC on SAR7334 coating; details: culture dish coated with SAR7334 (100 nM in gelatin), 48 h
Description: as §1
For scratch wound assays, cells were seeded in 24 well plates at a density of 100,000 cells per well. After they had grown to confluence for 24 h the cell monolayer was scratched in the middle with a 200 μl pipette tip. Cells were washed with PBS and incubated in growth medium supplemented with OAG (Sigma-Aldrich, St. Louis, Mo., USA) at final concentration of 100 μM or SAR 7334 (Bio-Techne, Wiesbaden, Germany) at a final concentration of […]. 1% DMSO was used as control. Wound area was measured directly after the scratch (t0) and after 6 h (t1), 8 h (t2) and 12 h (t3) with a phase-contrast microscope (Axiovert 100, Zeiss, Oberkochen, Germany) and assessed with ImageJ version 1.47v. Wound reclosure was measured as Δt0-t1 (6 h), Δt0-t2 (8 h), and Δt0-t3 (12 h) in pixels. […] Wound reclosure was measured as Δt0-t1 (48 h) in pixels. […]
For scratch wound assays, cells were seeded in 24 well plates at a density of 100,000 cells per well. […] Wound area was measured directly after the scratch (t0) and after 6 h (t1), 8 h (t2) and 12 h (t3) with a phase-contrast microscope (Axiovert 100, Zeiss, Oberkochen, Germany) and assessed with ImageJ version 1.47v. […]

Row | Structure (SMILES) | wound reclosure ([1]; 12 hours after scratch, vehicle 156.93±7.06, p=0.01) | wound reclosure ([1]; eight hours after scratch, vehicle 69.05±7.03, p=0.01) | proliferation of human VSMCs (BrdU ELISA) [2] | VSMC migration versus control ([1]; 6 hours after injury) | VSMC migration versus control ([1]; 8 hours after injury) | VSMC migration (wound reclosure) ([1]; 12 hours after scratch, control 130.0±10.6, p=0.04) | local migration versus control culture [3]
1 | CCCCCCCC/C=C\CCCCCCCC(=O)OC[C@H](CO)OC(C)=O [OAG, 1-oleoyl-2-acetyl-sn-glycerol] | 179.14±3.61 10^3 pixels | 93.09±3.67 10^3 pixels | 0.31±0.07 absorbance units |  |  |  | 
2 | N#Cc1ccc(O[C@@H]2c3ccccc3C[C@H]2N2CCC[C@@H](N)C2)c(Cl)c1 [SAR7334] |  |  |  | comparable to control levels | comparable to control levels | 111.4±15.5 10^3 pixels | reduced local migration
